The values below are quoted from earlier work in patent US20220081482A1, “ANTICANCER COMPOSITIONS COMPRISING IMMUNE CHECKPOINT INHIBITORS” (priority 2018, published 2022).

For the data set the following is noted: orally administered to rats.

For the compound `CN(C)C(=N)N=C(N)N` [metformin], the LD50 was 1,450 mg/kg.
